In patent US20160304556A1, “[…] ACTIVE COMPOUNDS AND THEIR METHODS OF USE” (AGIOS PHARMACEUTICALS, INC, priority 2012, published 2016):

What was measured:
[1] = target: IDH1 R132H (Homo sapiens, UniProt O75874, R132H); assay: In vitro NADPH depletion assay for IDH1m R132H inhibitors; type: biochemical; settings: enzyme, diaphorase/resazurin readout, read-out: IDH R132H IC50
Method in brief: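 IDH1-R132H homodimer […] was preincubated with compound for 60 min at room temperature in 20 mM Tris-Cl pH 7.5, 150 mM NaCl, 10 mM MgCl2, 0.05% BSA, 2 mM b-mercaptoethanol. Substrate mix (NADPH, 5 mM alpha-ketoglutarate) then reacted for 90 min. Remaining NADPH was read by diaphorase/resazurin fluorescence at Ex544/Em590.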

[2] = target: IDH1 R132C (Homo sapiens, UniProt O75874, R132C); assay: In vitro NADPH depletion assay for IDH1m R132C inhibitors; type: biochemical; settings: enzyme, diaphorase/resazurin readout, read-out: IDH R132C IC50
Method: A test compound is prepared as 10 mM stock in DMSO and diluted to 50× final concentration in DMSO, for a 50 μl reaction mixture. IDH enzyme activity converting alpha-ketoglutarate to 2-hydroxyglutaric acid is measured using a NADPH depletion assay. In the assay the remaining cofactor is measured at the end of the reaction with the addition of a catalytic excess of diaphorase and resazurin, to generate a fluorescent signal in proportion to the amount of NADPH remaining. IDH1-R132 homodimer enzyme is diluted to […] in 40 μl of Assay Buffer(150 mM NaCl, 20 mM Tris-Cl pH 7.5, 10 mM MgCl2, 0.05% BSA, 2 mM b-mercaptoethanol); 1 μl of test compound dilution in DMSO is added and the mixture is incubated for 60 minutes at room temperature. The reaction is started with the addition of 10 μl of Substrate Mix ([…], 5 mM alpha-ketoglutarate, in Assay Buffer) and the mixture is incubated for 90 minutes at room temperature. The reaction is terminated with the addition of 25 μl of Detection Buffer (36 μg/ml diaphorase, […], in 1× Assay Buffer), and is incubated for 1 minute before reading on a SpectraMax platereader at Ex544/Em590.
Compounds are assayed for their activity against IDH1 R132C following the same assay as above with the following modifications: Assay Buffer is (50 mM potassium phosphate, pH 6.5; 40 mM sodium carbonate, 5 mM MgCl2, 10% glycerol, 2 mM b-mercaptoethanol, and 0.03% BSA). The concentration of NADPH and alpha-ketoglutarate in the Substrate Buffer is 20 μM and 1 mM, respectively.
Representative compounds of formula I set forth in Table 1 were tested in this assay and the results are set forth below in Table 3.

[3] = test system: HT1080 cells; assay: Cellular assay, inhibition of 2-HG production (LC-MS) in HT1080 cells; type: cell-based; settings: Homo sapiens, HT-1080, 48 hours, LC-MS of media
Method in brief: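 HT1080 cells (5000/well) were incubated 48 hours with compound, 0.2% DMSO final. Medium 2-HG was quantified by LC-MS, and IC50 was taken as the concentration giving 50% reduction versus DMSO control. Viability was read by CellTiter-Glo luminescence at 72 hours.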

Sequence of IDH1 R132C (O75874 whole entry R132C): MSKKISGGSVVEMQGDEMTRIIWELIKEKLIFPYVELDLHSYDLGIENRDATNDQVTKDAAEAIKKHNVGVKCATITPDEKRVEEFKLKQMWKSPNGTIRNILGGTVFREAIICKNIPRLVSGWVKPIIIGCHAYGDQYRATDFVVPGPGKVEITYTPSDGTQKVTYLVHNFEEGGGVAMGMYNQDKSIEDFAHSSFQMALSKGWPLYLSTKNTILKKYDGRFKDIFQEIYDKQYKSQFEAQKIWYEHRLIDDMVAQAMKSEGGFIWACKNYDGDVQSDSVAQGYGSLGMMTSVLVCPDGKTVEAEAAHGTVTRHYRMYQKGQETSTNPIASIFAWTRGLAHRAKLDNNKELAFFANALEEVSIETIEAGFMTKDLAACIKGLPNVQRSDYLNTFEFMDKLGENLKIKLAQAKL
Sequence of IDH1 R132H (O75874 whole entry R132H): as the sequence (O75874 whole entry R132C) above, with C132H counted along it

SMILES	IC50 [1]	IC50 [2]	IC50 [3]
O=C1C[C@@H](C(=O)N(c2cccc(F)c2)[C@H](C(=O)NC2CC(F)(F)C2)c2ccccc2Cl)N(c2ncccn2)C1 [Compound 107]	≤ 0.1 µM	≤ 0.1 µM	≤ 0.1 µM
C[C@H]1CC[C@@H](C(=O)N(c2cccc(F)c2)[C@@H](C(=O)NC2CCC(F)(F)CC2)c2ccccc2Cl)N1c1ncccn1 [Compound 110, (2S,5S)—N—((R)-1-(2-chlorophenyl)-2-(4,4-difluorocyclohexylamino)-2-oxoethyl)-N-(3-fluorophenyl)-5-methyl-1-(pyrimidin-2-yl)pyrrolidine-2-carboxamide]	≤ 0.1 µM	≤ 0.1 µM	0.1 to 0.5 µM
C[C@H]1CC[C@@H](C(=O)N(c2cccc(F)c2)[C@H](C(=O)NC2CCC(F)(F)CC2)c2ccccc2Cl)N1c1ncccn1 [Compound 111, (2S,5S)—N—((S)-1-(2-chlorophenyl)-2-(4,4-difluorocyclohexylamino)-2-oxoethyl)-N-(3-fluorophenyl)-5-methyl-1-(pyrimidin-2-yl)pyrrolidine-2-carboxamide]	≤ 0.1 µM	≤ 0.1 µM	0.1 to 0.5 µM
C[C@H]1CC[C@@H](C(=O)N(c2cccc(F)c2)[C@@H](C(=O)NC2CC(F)(F)C2)c2ccccc2Cl)N1c1ncccn1 [Compound 112, (2S,5S)—N—((R)-1-(2-chlorophenyl)-2-(3,3-difluorocyclobutylamino)-2-oxoethyl)-N-(3-fluorophenyl)-5-methyl-1-(pyrimidin-2-yl)pyrrolidine-2-carboxamide]	0.1 to 0.5 µM	≤ 0.1 µM	0.1 to 0.5 µM
C[C@H]1CC[C@@H](C(=O)N(c2cccc(F)c2)[C@H](C(=O)NC2CC(F)(F)C2)c2ccccc2Cl)N1c1ncccn1 [Compound 113, (2S,5S)—N—((S)-1-(2-chlorophenyl)-2-(3,3-difluorocyclobutylamino)-2-oxoethyl)-N-(3-fluorophenyl)-5-methyl-1-(pyrimidin-2-yl)pyrrolidine-2-carboxamide]	≤ 0.1 µM	≤ 0.1 µM	0.1 to 0.5 µM

Further lines, results first:

IC50 [1]	IC50 [2]	IC50 [3]	SMILES
0.1 to 0.5 µM	≤ 0.1 µM	0.1 to 0.5 µM	O=C(NC1CC(F)(F)C1)[C@@H](c1ccccc1Cl)N(C(=O)[C@H](CO)Nc1ncccn1)c1cccc(F)c1 [Compound 108]
≤ 0.1 µM	≤ 0.1 µM	≤ 0.1 µM	O=C(NC1CC(F)(F)C1)[C@H](c1ccccc1Cl)N(C(=O)[C@H](CO)Nc1ncccn1)c1cccc(F)c1 [Compound 109]
